Experimental data taken from patent US8288428B2, “Compounds as cannabinoid receptor ligands” (Abbott Laboratories, priority 2009, dated 2012).
Like-named read-outs stand apart in the source and are kept apart here.

Columns and labels:
[1] = system: animal models of pain; conditions: animal models of acute thermal, persistent, inflammatory and neuropathic pain; cited from earlier work
[2] = target: T1, human CB2 receptors (Homo sapiens, UniProt P34972); test: human CB2 radioligand binding assay
T1 construct: expressed in transfected cells; membrane preparation
Protocol: (§1) (i) In Vitro Methods—CB2 and CB1 Radioligand Binding Assays:
(§2) The CB1 and CB2 radioligand binding assays described herein are utilized to ascertain the selectivity of compounds of the present application for binding to CB2 relative to CB1 receptors.
(§3) HEK293 cells stably expressing human CB2 receptors were grown until a confluent monolayer was formed. Briefly, the cells were harvested and homogenized in TE buffer (50 mM Tris-HCl, 1 mM MgCl2, and 1 mM EDTA) using a polytron for 2×10 second bursts in the presence of protease inhibitors, followed by centrifugation at 45,000×g for 20 minutes. The final membrane pellet was re-homogenized in storage buffer (50 mM Tris-HCl, 1 mM MgCl2, and 1 mM EDTA and 10% sucrose) and frozen at −78° C. until used. Saturation binding reactions were initiated by the addition of membrane preparation (protein concentration of 5 μg/well for human CB2) into wells of a deep well plate containing [^3H]CP-55,940 (120 Ci/mmol, a nonselective CB agonist commercially available from Tocris) in assay buffer (50 mM Tris, 2.5 mM EDTA, 5 mM MgCl2, and 0.5 mg/mL fatty acid free BSA, pH 7.4). After 90 min incubation at 30° C., binding reaction was terminated by the addition of 300 μL/well of cold assay buffer followed by rapid vacuum filtration through a UniFilter-96 GF/C filter plates (pre-soaked in 1 mg/mL BSA for 2 hours). The bound activity was counted in a TopCount using Microscint-20. Saturation experiments were conducted with twelve concentrations of [^3H]CP-55,940 ranging from 0.01 to 8 nM. Competition experiments were conducted with 0.5 nM [^3H]CP-55,940 and five concentrations (0.01 nM to 10 μM) of displacing ligands. The addition of 10 μM unlabeled CP-55,940 (Tocris, Ellisville, Mo.) was used to assess nonspecific binding.

[3] = target: T2, rat CB2 receptors (Rattus norvegicus, UniProt Q9QZN9); test: rat CB2 radioligand binding assay
T2 construct: expressed in transfected cells; membrane preparation
T2 sequence (Q9QZN9 1-360): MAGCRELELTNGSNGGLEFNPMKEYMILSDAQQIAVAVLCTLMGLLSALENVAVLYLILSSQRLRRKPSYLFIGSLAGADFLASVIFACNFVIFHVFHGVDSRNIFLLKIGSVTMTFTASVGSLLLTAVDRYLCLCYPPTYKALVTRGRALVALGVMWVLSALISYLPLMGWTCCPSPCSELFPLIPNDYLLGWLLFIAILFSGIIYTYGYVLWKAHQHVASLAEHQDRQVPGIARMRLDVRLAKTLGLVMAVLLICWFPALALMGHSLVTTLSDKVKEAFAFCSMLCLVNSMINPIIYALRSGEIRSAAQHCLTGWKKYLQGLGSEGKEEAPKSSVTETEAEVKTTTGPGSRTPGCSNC
Protocol: as §1, §2
as §3, with “expressing rat” for “expressing human”, “of 20” for “of 5”, “for rat” for “for human”, “After 45” for “After 90”, “concentrations of displacing ligands selected from the range of 0.01” for “concentrations (0.01”, “10 μM.” for “10 μM) of displacing ligands.”

[4] = system: rodent models of pain; conditions: rodent models of neuropathic, incisional, chronic and acute inflammatory pain; cited from earlier work
[5] = system: rat formalin model of persistent pain; conditions: cited from earlier work
[6] = system: microglial activation; conditions: in vitro; cited from earlier work
[7] = system: apolipoprotein E knockout mice; conditions: cited from earlier work
[8] = system: osteoclast activity; conditions: cited from earlier work
[9] = system: ovariectomy-induced bone loss; conditions: mice, model for post-menopausal osteoporosis; cited from earlier work
[10] = competition with 0.5 nM [3H]CP-55,940, HEK293 membranes expressing human CB2, read-out: human CB2 binding (Ki)

T1 sequence (P34972 whole entry): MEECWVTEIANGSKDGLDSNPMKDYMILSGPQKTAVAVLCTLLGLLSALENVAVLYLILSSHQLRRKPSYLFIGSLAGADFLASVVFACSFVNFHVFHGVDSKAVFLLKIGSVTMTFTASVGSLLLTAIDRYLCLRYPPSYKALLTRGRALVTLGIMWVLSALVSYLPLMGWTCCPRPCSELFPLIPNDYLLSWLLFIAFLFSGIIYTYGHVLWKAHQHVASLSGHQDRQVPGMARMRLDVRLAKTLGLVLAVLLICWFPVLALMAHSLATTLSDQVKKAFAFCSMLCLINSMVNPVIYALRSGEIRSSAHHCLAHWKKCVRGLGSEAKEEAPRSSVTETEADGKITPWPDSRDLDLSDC

CN1CCCCC1Cn1cc(C(=O)c2cc([N+](=O)[O-])ccc2I)c2ccccc21 (stereo not shown) [AM-1241]
analgesic efficacy [1]: robust analgesic efficacy

CCCCn1nc(C(C)(C)C)s/c1=N\C(=O)c1cc(C(F)(F)F)ccc1CN1CC(C(=O)OC)C1 [Example 21, methyl 1-[2-({[(2Z)-3-butyl-5-tert-butyl-1,3,4-thiadiazol-2(3H)-ylidene]amino}carbonyl)-4-(trifluoromethyl)benzyl]azetidine-3-carboxylate]
Ki [2]: 3.93 nM | Ki [3]: 1.79 nM

CCCCn1nc(C(C)(C)C)s/c1=N\C(=O)c1cc(C(F)(F)F)ccc1CN1CC(C(C)(C)O)C1 [Example 22, N-[(2Z)-3-butyl-5-tert-butyl-1,3,4-thiadiazol-2(3H)-ylidene]-2-{[3-(1-hydroxy-1-methylethyl)azetidin-1-yl]methyl}-5-(trifluoromethyl)benzamide]
Ki [2]: 5.33 nM | Ki [3]: 2.14 nM

CCCCn1/c(=N/C(=O)c2cc(C(F)(F)F)ccc2CC(=O)OC(C)(C)C)cc(C(C)(C)C)n1C [Example 23, tert-butyl[2-({[(3E)-2-butyl-5-tert-butyl-1-methyl-1,2-dihydro-3H-pyrazol-3-ylidene]amino}carbonyl)-4-(trifluoromethyl)phenyl]acetate]
Ki [2, 10]: 269 nM | Ki [3]: 80.2 nM

CCCCn1/c(=N/C(=O)c2cc(C(F)(F)F)ccc2CN2CC(O)C2)cc(C(C)(C)C)n1C [Example 24, N-[(3E)-2-butyl-5-tert-butyl-1-methyl-1,2-dihydro-3H-pyrazol-3-ylidene]-2-[(3-hydroxyazetidin-1-yl)methyl]-5-(trifluoromethyl)benzamide]
Ki [2, 10]: 117 nM | Ki [3]: 87.5 nM

CCCCn1/c(=N/C(=O)c2cc(C(F)(F)F)ccc2COCC(C)(C)O)cc(C(C)(C)C)n1C [Example 25, N-[(3E)-2-butyl-5-tert-butyl-1-methyl-1,2-dihydro-3H-pyrazol-3-ylidene]-2-[(2-hydroxy-2-methylpropoxy)methyl]-5-(trifluoromethyl)benzamide]
Ki [2]: 25 nM | Ki [3]: 17.8 nM

COc1ccc2c(c1)c(CCN1CCOCC1)c(C)n2C(=O)c1cccc(Cl)c1Cl [GW405833]
efficacy in pain models [4]: efficacious

CCCCCCC(C)(C)c1cc(OC)c([C@@H]2C=C(CO)[C@@H]3C[C@H]2C3(C)C)c(OC)c1 [HU-308]
antinociceptive response [5]: elicits an antinociceptive response

CCCC(C)(C)c1ccc2c(c1)OC(C)(C)[C@@H]1CC=C(C)C[C@@H]21 [JWH-133]
effect on β-amyloid-induced microglial activation and neurotoxicity [6]: abrogated

(−)-Δ^9-Tetrahydrocannabinol [THC]
progression of atherosclerotic lesions ([7]; low doses): slowed the progression

SR144528
blockade of JWH-133 effects on β-amyloid-induced microglial activation and neurotoxicity [6]: blocked | effect on osteoclast activity [8]: inhibit | effect on ovariectomy-induced bone loss [9]: reverse | inhibition of THC effects on atherosclerotic lesions [7]: inhibited
